According to ChEMBL document CHEMBL1201862, “PubChem BioAssay data set” (2004):
The source made the active and inactive calls.

Legend:
[1] = inhibitors of intracellular T. cruzi replication, confirmation, NIH3T3 host cells, beta-gal luminescence (AID 2044); type: functional, cell-based;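 note: intracellular parasites grown in NIH/3T3 mouse fibroblasts as host cells; luminescent beta-galactosidase reporter signal from transgenic T. cruzi replicating inside host cells; inhibitors lower the luminescence signal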
[2] = cytotoxicity toward NIH3T3 fibroblasts, dose response, counter-screen, cell-based, ATP luminescence, mouse fibroblasts (AID 2010); type: functional;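 note: cells exposed to compound for about 90 hours before reading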
[3] = Intein inhibitors as potential Tuberculosis drugs, a cytotoxicity screen. [Related pubchem assays (depositor defined):AID2221, AID2223, AID434968, AID435010, AID449749, AID449750, AID489010]; type: functional
[4] = target: T1, Replicative DNA helicase DnaB (Mycobacterium tuberculosis, UniProt P9WMR3); experiment: DnaB intein splicing inhibitors, dose response, biochemical, cell-free fluorescence (AID 449749); type: functional
T1 sequence (P9WMR3 whole entry): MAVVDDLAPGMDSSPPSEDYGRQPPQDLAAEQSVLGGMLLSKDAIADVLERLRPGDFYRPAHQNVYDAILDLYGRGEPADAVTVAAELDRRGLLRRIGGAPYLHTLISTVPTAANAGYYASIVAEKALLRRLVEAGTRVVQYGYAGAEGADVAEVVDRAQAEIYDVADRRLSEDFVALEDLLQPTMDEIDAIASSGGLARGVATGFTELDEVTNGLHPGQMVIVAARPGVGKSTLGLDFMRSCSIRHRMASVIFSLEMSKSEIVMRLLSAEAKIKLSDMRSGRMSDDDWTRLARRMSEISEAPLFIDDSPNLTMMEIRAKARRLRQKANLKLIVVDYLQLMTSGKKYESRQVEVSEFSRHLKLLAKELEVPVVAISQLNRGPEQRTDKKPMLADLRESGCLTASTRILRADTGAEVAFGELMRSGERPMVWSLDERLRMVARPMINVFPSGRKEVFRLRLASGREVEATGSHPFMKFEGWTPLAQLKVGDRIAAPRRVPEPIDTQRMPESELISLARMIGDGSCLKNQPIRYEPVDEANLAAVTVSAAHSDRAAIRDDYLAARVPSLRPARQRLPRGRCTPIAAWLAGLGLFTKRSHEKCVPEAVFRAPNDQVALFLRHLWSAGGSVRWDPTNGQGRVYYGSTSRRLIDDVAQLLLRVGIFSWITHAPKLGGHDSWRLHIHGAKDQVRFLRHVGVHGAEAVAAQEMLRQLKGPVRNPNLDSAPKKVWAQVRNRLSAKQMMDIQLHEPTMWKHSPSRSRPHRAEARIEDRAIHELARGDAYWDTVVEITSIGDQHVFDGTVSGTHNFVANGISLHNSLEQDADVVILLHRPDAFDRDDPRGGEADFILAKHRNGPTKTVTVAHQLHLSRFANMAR

Protein RecA = target: T2, Protein RecA (Mycobacterium tuberculosis, UniProt P9WHJ3); experiment: Fluorescence Cell-Free Homogeneous Dose Retest to Identify Inhibitors of RecA-Intein Splicing Activity. [Related pubchem assays (depositor defined):AID2097, AID2223, AID489010, AID492950]; type: functional
T2 sequence (P9WHJ3 whole entry): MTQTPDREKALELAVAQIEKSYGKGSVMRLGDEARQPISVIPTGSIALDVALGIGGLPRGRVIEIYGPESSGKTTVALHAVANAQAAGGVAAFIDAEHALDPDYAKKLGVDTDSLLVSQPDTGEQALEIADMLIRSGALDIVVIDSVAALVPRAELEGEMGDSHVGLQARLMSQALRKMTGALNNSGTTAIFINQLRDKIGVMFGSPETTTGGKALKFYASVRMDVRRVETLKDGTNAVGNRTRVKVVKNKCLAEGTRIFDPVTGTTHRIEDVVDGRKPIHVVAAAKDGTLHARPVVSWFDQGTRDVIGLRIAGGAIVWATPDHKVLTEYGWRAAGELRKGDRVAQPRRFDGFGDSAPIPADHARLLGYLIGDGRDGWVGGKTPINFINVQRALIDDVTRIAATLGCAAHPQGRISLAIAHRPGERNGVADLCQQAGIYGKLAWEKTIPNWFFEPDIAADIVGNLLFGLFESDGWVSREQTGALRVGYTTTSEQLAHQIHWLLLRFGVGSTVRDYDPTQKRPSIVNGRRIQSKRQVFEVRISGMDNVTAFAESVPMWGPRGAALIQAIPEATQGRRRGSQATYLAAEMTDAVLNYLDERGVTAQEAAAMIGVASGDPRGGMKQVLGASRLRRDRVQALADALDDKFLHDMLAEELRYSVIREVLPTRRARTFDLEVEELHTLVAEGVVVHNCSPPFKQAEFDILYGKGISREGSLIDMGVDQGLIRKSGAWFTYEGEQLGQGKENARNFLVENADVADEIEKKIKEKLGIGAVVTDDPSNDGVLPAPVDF

INS1 = experiment: beta cell apoptosis inhibitors, cytokine rescue, dose response, luminescence, retest (AID 449756); type: functional, cell-based; conditions: Rattus norvegicus;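 note: cell death triggered by IL-1 beta plus TNF-alpha plus IFN-gamma mixture; protective hits raise ATP signal compared with cytokine alone wells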
[5] = target: G-protein coupled receptor 55 (Homo sapiens, UniProt Q9Y2T6); experiment: GPR55 antagonists blocking LPI-driven arrestin recruitment, primary screen, imaging, U2OS, beta-arrestin-GFP, LPI agonist (AID 2013); type: functional;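 note: antagonist potency measured as reduced agonist-driven arrestin aggregation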
Chain of G-protein coupled receptor 55 (Q9Y2T6 whole entry): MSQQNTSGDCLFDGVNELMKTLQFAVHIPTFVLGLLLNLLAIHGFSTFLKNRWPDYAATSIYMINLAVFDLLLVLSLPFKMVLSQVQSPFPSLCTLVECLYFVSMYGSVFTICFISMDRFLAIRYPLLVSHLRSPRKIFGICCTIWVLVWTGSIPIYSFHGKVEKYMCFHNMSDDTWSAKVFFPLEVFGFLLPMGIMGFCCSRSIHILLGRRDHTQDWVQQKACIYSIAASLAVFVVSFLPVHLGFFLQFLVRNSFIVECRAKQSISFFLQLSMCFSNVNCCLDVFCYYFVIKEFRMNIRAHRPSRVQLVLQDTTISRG

Genome polyprotein = Genome polyprotein (dengue virus type 2, UniProt P29990); experiment: Dengue-2 NS5 methyltransferase inhibitors, primary screen, biochemical, confirmation dose response (AID 588689); type: functional
Chain of Genome polyprotein (P29990 2492-3391 limits assumed): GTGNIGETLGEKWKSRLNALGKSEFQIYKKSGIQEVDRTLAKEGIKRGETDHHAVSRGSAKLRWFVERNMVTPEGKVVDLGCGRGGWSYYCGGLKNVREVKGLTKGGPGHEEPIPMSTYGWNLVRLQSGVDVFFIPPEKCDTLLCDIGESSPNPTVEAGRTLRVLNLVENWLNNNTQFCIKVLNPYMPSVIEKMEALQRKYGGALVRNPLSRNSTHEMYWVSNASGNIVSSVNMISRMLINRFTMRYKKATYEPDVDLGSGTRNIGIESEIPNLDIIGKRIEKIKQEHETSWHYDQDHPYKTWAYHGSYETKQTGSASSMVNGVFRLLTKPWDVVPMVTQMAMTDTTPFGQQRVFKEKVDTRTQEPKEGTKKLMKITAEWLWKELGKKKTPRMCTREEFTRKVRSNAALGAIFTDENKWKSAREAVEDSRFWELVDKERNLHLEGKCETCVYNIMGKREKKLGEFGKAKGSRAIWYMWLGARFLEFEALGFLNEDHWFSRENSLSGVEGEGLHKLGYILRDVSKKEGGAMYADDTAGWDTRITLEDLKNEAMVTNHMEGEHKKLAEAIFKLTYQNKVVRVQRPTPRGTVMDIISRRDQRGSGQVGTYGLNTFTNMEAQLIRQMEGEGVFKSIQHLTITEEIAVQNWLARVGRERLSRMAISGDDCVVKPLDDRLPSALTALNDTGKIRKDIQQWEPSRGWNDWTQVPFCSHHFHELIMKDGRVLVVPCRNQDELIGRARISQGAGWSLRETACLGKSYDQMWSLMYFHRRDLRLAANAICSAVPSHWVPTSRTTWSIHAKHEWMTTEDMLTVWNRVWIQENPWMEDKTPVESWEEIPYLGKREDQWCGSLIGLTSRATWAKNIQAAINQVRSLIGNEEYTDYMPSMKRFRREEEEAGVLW

Leucine aminopeptidase = target: T3, Leucine aminopeptidase (Plasmodium falciparum 3D7, UniProt Q8IL11); experiment: P. falciparum M17LAP inhibitors, primary screen, biochemical, fluorogenic H-Leu-NHMec substrate, 1536-well (AID 1619); type: functional
T3 sequence (Q8IL11 whole entry): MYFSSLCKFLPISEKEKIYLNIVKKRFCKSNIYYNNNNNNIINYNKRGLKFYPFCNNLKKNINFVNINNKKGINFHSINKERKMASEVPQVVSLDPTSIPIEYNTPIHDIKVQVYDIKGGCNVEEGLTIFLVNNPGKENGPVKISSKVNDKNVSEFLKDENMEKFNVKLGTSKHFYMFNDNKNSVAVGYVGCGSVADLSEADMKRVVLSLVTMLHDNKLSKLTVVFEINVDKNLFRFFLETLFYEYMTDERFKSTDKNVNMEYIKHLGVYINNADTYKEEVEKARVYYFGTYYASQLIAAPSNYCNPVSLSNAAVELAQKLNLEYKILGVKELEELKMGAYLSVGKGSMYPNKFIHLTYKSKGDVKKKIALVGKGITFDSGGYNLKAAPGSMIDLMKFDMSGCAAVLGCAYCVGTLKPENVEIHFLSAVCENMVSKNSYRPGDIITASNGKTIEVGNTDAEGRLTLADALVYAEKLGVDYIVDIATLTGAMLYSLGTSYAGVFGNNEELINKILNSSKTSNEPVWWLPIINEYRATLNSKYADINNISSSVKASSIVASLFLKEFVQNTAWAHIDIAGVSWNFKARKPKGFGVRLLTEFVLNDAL

[6] = target: Induced myeloid leukemia cell differentiation protein Mcl-1 (Homo sapiens, UniProt Q07820); type: functional
Fatty acid synthase [7] = target: T4, Fatty acid synthase (Homo sapiens, UniProt P49327); experiment: FAS thioesterase domain inhibitors, dose response, biochemical, endpoint fluorescence intensity, uHTS hits (AID 624327); type: functional;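 note: fluorescence from hydrolysis of an O-methyl fluorescein acyl ester substrate by the enzyme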
T4 sequence (P49327 whole entry, the tested form may be a part): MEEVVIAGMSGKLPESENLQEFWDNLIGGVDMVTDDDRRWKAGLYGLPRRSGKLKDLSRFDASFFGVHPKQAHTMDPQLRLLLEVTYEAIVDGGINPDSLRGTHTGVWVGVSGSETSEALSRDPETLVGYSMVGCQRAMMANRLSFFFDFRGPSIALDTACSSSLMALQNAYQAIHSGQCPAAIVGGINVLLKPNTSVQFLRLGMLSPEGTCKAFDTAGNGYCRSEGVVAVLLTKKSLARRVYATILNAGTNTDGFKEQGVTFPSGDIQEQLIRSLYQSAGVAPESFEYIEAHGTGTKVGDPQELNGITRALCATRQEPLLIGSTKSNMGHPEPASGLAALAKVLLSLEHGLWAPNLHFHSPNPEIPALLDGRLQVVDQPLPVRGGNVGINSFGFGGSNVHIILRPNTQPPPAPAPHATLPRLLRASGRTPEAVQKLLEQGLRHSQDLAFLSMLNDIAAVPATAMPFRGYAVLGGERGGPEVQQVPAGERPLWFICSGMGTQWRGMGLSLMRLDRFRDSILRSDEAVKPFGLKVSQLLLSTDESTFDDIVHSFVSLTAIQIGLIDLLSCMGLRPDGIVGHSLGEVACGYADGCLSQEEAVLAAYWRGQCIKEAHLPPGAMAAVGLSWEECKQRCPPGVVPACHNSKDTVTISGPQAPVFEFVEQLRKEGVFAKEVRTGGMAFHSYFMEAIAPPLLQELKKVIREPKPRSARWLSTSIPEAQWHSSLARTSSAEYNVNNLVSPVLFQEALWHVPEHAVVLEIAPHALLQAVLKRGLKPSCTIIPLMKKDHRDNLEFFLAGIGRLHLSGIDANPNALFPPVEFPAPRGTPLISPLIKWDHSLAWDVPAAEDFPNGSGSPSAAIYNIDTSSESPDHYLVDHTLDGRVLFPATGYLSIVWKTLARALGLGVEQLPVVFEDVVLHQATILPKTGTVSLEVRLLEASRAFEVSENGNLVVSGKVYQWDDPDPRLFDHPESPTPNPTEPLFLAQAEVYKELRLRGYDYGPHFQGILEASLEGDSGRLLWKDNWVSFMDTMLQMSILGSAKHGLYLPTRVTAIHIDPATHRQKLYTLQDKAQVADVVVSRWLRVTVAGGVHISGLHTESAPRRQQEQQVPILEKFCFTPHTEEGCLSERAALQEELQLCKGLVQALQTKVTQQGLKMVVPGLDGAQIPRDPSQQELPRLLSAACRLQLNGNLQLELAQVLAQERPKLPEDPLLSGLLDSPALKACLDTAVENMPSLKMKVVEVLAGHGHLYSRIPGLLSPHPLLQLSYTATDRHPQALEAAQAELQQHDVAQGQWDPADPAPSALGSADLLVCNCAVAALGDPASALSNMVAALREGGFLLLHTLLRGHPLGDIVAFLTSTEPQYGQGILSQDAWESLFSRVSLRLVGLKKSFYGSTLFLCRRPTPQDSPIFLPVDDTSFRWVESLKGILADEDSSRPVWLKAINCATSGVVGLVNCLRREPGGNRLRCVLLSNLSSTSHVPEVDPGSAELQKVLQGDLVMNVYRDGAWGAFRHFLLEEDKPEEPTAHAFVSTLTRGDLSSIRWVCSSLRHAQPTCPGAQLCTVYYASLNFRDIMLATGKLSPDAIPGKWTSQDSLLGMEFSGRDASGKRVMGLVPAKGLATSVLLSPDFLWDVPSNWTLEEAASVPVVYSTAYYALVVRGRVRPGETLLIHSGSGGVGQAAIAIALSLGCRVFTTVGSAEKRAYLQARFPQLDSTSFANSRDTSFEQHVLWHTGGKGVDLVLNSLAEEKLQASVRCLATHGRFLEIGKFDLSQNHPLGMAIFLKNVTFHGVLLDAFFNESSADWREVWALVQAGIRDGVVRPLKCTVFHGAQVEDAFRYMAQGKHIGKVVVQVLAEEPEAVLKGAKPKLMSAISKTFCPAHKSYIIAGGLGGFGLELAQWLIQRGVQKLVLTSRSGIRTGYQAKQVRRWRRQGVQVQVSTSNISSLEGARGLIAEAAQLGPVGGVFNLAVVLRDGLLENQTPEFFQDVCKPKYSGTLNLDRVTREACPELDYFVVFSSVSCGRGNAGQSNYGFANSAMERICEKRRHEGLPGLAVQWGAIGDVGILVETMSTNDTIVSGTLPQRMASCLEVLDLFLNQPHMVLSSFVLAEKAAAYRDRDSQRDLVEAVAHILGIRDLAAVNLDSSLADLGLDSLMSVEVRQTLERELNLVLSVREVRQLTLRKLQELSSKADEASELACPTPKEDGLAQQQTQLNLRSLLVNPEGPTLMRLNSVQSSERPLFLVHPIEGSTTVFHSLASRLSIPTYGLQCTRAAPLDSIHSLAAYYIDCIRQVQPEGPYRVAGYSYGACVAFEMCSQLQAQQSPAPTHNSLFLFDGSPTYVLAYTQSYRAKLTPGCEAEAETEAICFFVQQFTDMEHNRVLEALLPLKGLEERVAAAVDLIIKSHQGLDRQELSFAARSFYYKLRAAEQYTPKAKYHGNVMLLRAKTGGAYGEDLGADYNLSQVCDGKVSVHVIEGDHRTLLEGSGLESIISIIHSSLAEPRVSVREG

Fatty acid synthase [8] = target: T4, Fatty acid synthase; experiment: FAS thioesterase domain inhibitors, dose response, biochemical, kinetic fluorescence intensity (AID 624326); type: functional;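 note: rate of fluorescence rise from hydrolysis of a fluorogenic O-methyl fluorescein ester substrate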
Caspase-6 = target: T5, Caspase-6 (Homo sapiens, UniProt P55212); experiment: human caspase-6 inhibitors, dose response, biochemical, VEID-R110 fluorescence, cherry-pick (AID 720632)
T5 sequence (P55212 whole entry): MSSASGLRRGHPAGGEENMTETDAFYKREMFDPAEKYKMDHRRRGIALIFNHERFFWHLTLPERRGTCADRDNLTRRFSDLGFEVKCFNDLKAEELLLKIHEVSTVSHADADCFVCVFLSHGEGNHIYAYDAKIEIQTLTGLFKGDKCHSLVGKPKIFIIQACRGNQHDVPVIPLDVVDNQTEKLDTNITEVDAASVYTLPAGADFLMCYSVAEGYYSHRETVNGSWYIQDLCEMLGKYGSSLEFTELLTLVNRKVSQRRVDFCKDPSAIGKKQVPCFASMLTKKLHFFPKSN

SUMO-activating enzyme [9] = target: T6, SUMO-activating enzyme (Homo sapiens, UniProt Q9UBT2); experiment: SUMOylation inhibitor hit validation, confirmation, SUMOylation inhibitor project, biochemical, AlphaScreen (AID 2018); type: functional
T6 sequence (Q9UBE0 whole entry): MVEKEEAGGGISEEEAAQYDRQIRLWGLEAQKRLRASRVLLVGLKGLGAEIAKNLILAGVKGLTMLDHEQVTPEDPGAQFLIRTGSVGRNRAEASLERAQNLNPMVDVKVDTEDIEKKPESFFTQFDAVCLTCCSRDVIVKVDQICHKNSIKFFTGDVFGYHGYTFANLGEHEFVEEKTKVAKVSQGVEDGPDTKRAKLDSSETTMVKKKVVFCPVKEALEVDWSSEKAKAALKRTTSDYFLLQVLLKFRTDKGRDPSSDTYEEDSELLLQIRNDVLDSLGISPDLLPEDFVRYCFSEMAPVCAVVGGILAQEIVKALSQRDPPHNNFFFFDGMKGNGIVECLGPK
T6 sequence (Q9UBT2 whole entry): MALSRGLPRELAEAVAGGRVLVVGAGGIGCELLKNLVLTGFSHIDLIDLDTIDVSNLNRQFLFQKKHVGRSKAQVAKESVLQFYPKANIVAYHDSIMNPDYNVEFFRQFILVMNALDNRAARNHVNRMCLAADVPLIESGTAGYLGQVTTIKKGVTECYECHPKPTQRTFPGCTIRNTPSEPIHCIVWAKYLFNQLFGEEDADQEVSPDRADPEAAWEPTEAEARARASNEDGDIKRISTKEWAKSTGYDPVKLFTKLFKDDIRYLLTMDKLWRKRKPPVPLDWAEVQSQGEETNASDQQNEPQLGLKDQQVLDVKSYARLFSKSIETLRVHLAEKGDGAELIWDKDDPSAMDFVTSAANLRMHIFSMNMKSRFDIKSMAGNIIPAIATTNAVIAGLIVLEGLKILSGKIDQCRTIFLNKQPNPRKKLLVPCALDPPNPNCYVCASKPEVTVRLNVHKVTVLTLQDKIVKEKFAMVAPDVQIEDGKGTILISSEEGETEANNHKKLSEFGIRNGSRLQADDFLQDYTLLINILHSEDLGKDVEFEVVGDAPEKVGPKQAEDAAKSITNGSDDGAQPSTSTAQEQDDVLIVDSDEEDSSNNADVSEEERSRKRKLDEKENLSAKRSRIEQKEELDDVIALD

Large T antigen = Large T antigen (Simian virus 40, UniProt P03070); type: functional, Betapolyomavirus macacae;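 note: Confirmatory-stage PubChem screen for compounds that inhibit SV40 T antigen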
SUMO-activating enzyme [10] = target: T6, SUMO-activating enzyme; experiment: inhibitors of in vitro SUMOylation cascade, primary screen, biochemical, HTRF, uHTS (AID 2006); type: protein-complex assay
[11] = target: FAD-linked sulfhydryl oxidase ALR (Homo sapiens, UniProt P55789); experiment: inhibitors of human ALR sulfhydryl oxidase, dose response, biochemical, H2O2 detection, luminescence, cherry-pick (AID 493248)
Chain of FAD-linked sulfhydryl oxidase ALR (P55789 whole entry): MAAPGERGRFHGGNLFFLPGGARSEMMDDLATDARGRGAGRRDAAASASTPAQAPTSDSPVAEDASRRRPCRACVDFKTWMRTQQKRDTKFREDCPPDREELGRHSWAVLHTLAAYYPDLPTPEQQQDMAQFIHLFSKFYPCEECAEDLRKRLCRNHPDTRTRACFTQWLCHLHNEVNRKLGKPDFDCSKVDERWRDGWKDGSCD

[12] = target: DNA dC->dU-editing enzyme APOBEC-3A (Homo sapiens, UniProt P31941); experiment: Dose Response confirmation of small molecule APOBEC3A DNA Deaminase Inhibitors via a fluorescence-based single-stranded DNA deaminase assay. [Related pubchem assays (depositor defined):AID493011, AID493024]; type: functional
[13] = target: DNA dC->dU-editing enzyme APOBEC-3G (Homo sapiens, UniProt Q9HC16); type: functional;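 note: Dose-response counterscreen measuring inhibition of APOBEC3G DNA deaminase activity, run while confirming APOBEC3A inhibitors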
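Throughout, for CC50: cells exposed to compound for 72 hours before luminescence readout.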

Cc1cccc(Cn2nnc3c2C(=O)c2ccccc2C3=O)c1
EC50 [1]: 2.58 µM (active) | EC50 [2]: > 30 µM (not active) | CC50 [3]: 11.7 µM (active) | AC50 [4]: 4.2 µM (active) | EC50 (Protein RecA): 0.446 µM (active) | AC50 (INS1): 5.21 µM (active)

COc1ccc(S(=O)(=O)CC(=O)c2cc3cc(Br)ccc3oc2=O)cc1
IC50 [5]: 2.11 µM (active) | IC50 (Genome polyprotein): > 100 µM (active)

C=CCOc1c(OC)cc(/C=N/Nc2cccc(C(=O)O)c2)c(Br)c1Br
IC50 (Leucine aminopeptidase): < 1 µM (active) | IC50 [5]: 2.92 µM (active) | IC50 [6]: 5.84 µM (not active) | IC50 (Fatty acid synthase [7]): 3.82 µM (active) | IC50 (Fatty acid synthase [8]): 3.06 µM (active) | AC50 (Caspase-6): 19.2 µM (active)

Sc1nnc(-c2ccc(Cl)cc2)n1/N=C/C=C/c1ccco1
IC50 (SUMO-activating enzyme [9]): 7.66 µM (active) | IC50 (Large T antigen): 69.2 µM (active) | IC50 (SUMO-activating enzyme [10]): 59.1 µM (active) | AC50 [11]: 1.95 µM (active)

CCn1c(C=CN(C(C)=O)c2ccccc2)[n+](CC)c2cc(Cl)ccc21
IC50 [12]: 2.23 µM (active) | IC50 [13]: 4.45 µM (active)
